From the NIST ThermoML archive (doi:10.1016/j.fluid.2019.112274)
± gives the expanded uncertainty stated by the source.

Details: Liquid; for speed of sound: Brillouin light scattering; for thermal diffusivity: Dynamic light scattering

CCCCCCCCCC(=O)OCC [ethyl decanoate]
Details	speed of sound [m/s]	thermal diffusivity [m2/s]
419.73 K, 7000 kPa	932.2 ± 11	–
423.29 K, 10000 kPa	949.4 ± 11	–
429.05 K, 5000 kPa	–	6.58e-08 ± 2e-09
429.1 K, 3000 kPa	–	6.5e-08 ± 2e-09
429.14 K, 100 kPa	–	6.39e-08 ± 2e-09
429.25 K, 10000 kPa	–	6.78e-08 ± 2.1e-09
429.56 K, 100 kPa	839.8 ± 10	–
429.56 K, 3000 kPa	868.5 ± 10	–
429.6 K, 5000 kPa	884.8 ± 11	–
430.45 K, 7000 kPa	901.1 ± 11	–
432.01 K, 10000 kPa	925 ± 11	–
439.2 K, 10000 kPa	903.9 ± 11	–
439.28 K, 100 kPa	809.5 ± 9.8	–
439.85 K, 3000 kPa	836.6 ± 10	–
440.02 K, 5000 kPa	854.6 ± 10	–
440.37 K, 7000 kPa	871.6 ± 10	–
444.19 K, 100 kPa	–	6.21e-08 ± 1.9e-09
444.35 K, 5000 kPa	–	6.4e-08 ± 2e-09
444.38 K, 3000 kPa	–	6.32e-08 ± 2e-09
444.46 K, 10000 kPa	–	6.59e-08 ± 2e-09
448.51 K, 10000 kPa	878.1 ± 11	–
449.52 K, 7000 kPa	845.4 ± 10	–
450.25 K, 3000 kPa	805.8 ± 9.7	–
450.25 K, 5000 kPa	825.6 ± 9.9	–
451.03 K, 100 kPa	773.3 ± 9.3	–
458.86 K, 5000 kPa	801.3 ± 9.7	–
459.76 K, 100 kPa	–	5.97e-08 ± 1.9e-09
459.85 K, 3000 kPa	778.6 ± 9.4	–
459.9 K, 3000 kPa	–	6.09e-08 ± 1.9e-09
460 K, 10000 kPa	–	6.34e-08 ± 2e-09
460.01 K, 7000 kPa	–	6.23e-08 ± 1.9e-09
460.11 K, 100 kPa	746.8 ± 9	–
460.12 K, 5000 kPa	–	6.16e-08 ± 1.9e-09
460.2 K, 7000 kPa	816 ± 9.8	–
463.71 K, 10000 kPa	837.3 ± 10	–
469.25 K, 3000 kPa	752.4 ± 9.1	–
469.28 K, 5000 kPa	771.9 ± 9.3	–
469.32 K, 7000 kPa	792 ± 9.5	–
469.45 K, 100 kPa	719.5 ± 8.7	–
470.42 K, 10000 kPa	819.1 ± 9.9	–
475.26 K, 3000 kPa	–	5.84e-08 ± 1.8e-09
475.27 K, 100 kPa	–	5.74e-08 ± 1.8e-09
475.31 K, 7000 kPa	–	5.99e-08 ± 1.9e-09
475.31 K, 10000 kPa	–	6.1e-08 ± 1.9e-09
475.35 K, 5000 kPa	–	5.92e-08 ± 1.9e-09
479.25 K, 100 kPa	691.6 ± 8.3	–
479.29 K, 3000 kPa	724.5 ± 8.7	–
479.47 K, 7000 kPa	764.5 ± 9.2	–
479.9 K, 5000 kPa	743.2 ± 9	–
481.5 K, 10000 kPa	791.1 ± 9.5	–
488.69 K, 7000 kPa	740.9 ± 8.9	–
489.53 K, 3000 kPa	–	5.62e-08 ± 1.8e-09
489.54 K, 5000 kPa	–	5.69e-08 ± 1.8e-09
489.54 K, 7000 kPa	–	5.76e-08 ± 1.8e-09
489.54 K, 10000 kPa	–	5.87e-08 ± 1.8e-09
489.57 K, 100 kPa	–	5.52e-08 ± 1.7e-09
490.41 K, 5000 kPa	715.7 ± 8.6	–
490.81 K, 3000 kPa	693.8 ± 8.4	–
492.02 K, 10000 kPa	764.5 ± 9.2	–
499.48 K, 10000 kPa	745.9 ± 9	–
500.41 K, 5000 kPa	690.3 ± 8.3	–
500.55 K, 7000 kPa	711.6 ± 8.6	–
500.76 K, 3000 kPa	667.8 ± 8.1	–
504.58 K, 5000 kPa	–	5.45e-08 ± 1.7e-09
504.77 K, 7000 kPa	–	5.52e-08 ± 1.7e-09
504.79 K, 3000 kPa	–	5.39e-08 ± 1.7e-09
504.94 K, 10000 kPa	–	5.62e-08 ± 1.8e-09
505.38 K, 100 kPa	–	5.28e-08 ± 1.7e-09
509.33 K, 10000 kPa	722.7 ± 8.7	–
510.27 K, 5000 kPa	666.3 ± 8	–
510.41 K, 7000 kPa	686.9 ± 8.3	–
510.65 K, 3000 kPa	642.8 ± 7.8	–
519.26 K, 3000 kPa	–	5.2e-08 ± 1.7e-09
519.36 K, 5000 kPa	–	5.26e-08 ± 1.7e-09
519.41 K, 7000 kPa	–	5.33e-08 ± 1.7e-09
519.6 K, 10000 kPa	–	5.43e-08 ± 1.7e-09
520.04 K, 10000 kPa	696.8 ± 8.4	–
520.19 K, 3000 kPa	619.7 ± 7.5	–
520.25 K, 5000 kPa	642.5 ± 7.8	–
520.27 K, 7000 kPa	664.6 ± 8	–
529.04 K, 10000 kPa	678 ± 8.2	–
529.91 K, 5000 kPa	619.5 ± 7.5	–
530.11 K, 7000 kPa	641.3 ± 7.7	–
530.36 K, 3000 kPa	595.4 ± 7.2	–
534.46 K, 5000 kPa	–	5.06e-08 ± 1.6e-09
534.75 K, 7000 kPa	–	5.12e-08 ± 1.6e-09
534.77 K, 3000 kPa	–	5e-08 ± 1.6e-09
535.01 K, 10000 kPa	–	5.22e-08 ± 1.7e-09
540.06 K, 7000 kPa	618.1 ± 7.5	–
540.09 K, 10000 kPa	651.8 ± 7.9	–
540.12 K, 5000 kPa	595.3 ± 7.2	–
540.66 K, 3000 kPa	570.8 ± 6.9	–
548.94 K, 3000 kPa	551.9 ± 6.7	–
549.74 K, 5000 kPa	574.5 ± 7	–
549.76 K, 3000 kPa	–	4.77e-08 ± 1.5e-09
549.87 K, 10000 kPa	630.6 ± 7.6	–
549.96 K, 5000 kPa	–	4.84e-08 ± 1.6e-09
549.97 K, 7000 kPa	–	4.9e-08 ± 1.6e-09
549.99 K, 7000 kPa	596.7 ± 7.2	–
550.17 K, 10000 kPa	–	4.99e-08 ± 1.6e-09
558.46 K, 3000 kPa	529.8 ± 6.4	–
559.93 K, 5000 kPa	551.9 ± 6.7	–
561 K, 10000 kPa	607 ± 7.3	–
562.07 K, 7000 kPa	570.2 ± 6.9	–
565.49 K, 10000 kPa	–	4.76e-08 ± 1.5e-09
565.86 K, 5000 kPa	–	4.61e-08 ± 1.5e-09
565.87 K, 7000 kPa	–	4.67e-08 ± 1.5e-09
566.27 K, 3000 kPa	–	4.55e-08 ± 1.5e-09
